Experimental data published in US20210213039A1, “COMPOSITION CONTAINING ECTOINE OR HYDROXYECTOINE AS AN ACTIVE SUBSTANCE FOR PROMOTING THE REGENERATION OF INJURED BODY TISSUE” (Bitop AG, priority 2012, published 2021).

Columns and labels:
[1] = tested on: ARPE-19 cells (adherent retinal pigment epithelial cells); experiment: Re-epithelialization scratch assay; format: cell-based; conditions: for Gap width in treated cell cultures (re-epithelialization): first two days, especially in serum-free cultures; for Gap width in %: after 24 h, untreated sample = 100%
Experimental: After 24 hours of incubation using 0, 0.1, 0.5, 1, 2.5 and 5 mM of ectoine/hydroxyectoine in serum-free and serum-containing media defined cell areas were removed (scratch assay) from a confluent cell layer of ARPE-19 cells (adherent retinal pigment epithelial cells). The width of the applied gap was determined via microscope at previously marked places. 24 and 48 hours later in each case a photo documentation was prepared with the gap width being again determined at the respective places. 6 tests were performed for each concentration.
The mean value of the gap widths after 24 h of the sample not treated with ectoine was determined to be 100%. The following gap width percentages could be detected: […]

[2] = tested on: porcine ex-vivo skin punches; experiment: Ex-vivo porcine wound healing model (skin punches, wound healing score); design: species or system pig; conditions: for Wound healing potential: porcine ex-vivo skin punches; for Wound healing progress based on the PBS control (MW) / Absolute wound healing progress (wound healing score, MW): 5 μl into the wound, after 48 h; for Wound healing progress based on the PBS control (MW): PBS isotonic = 1.00; for Absolute wound healing progress (wound healing score, MW): score 0-4
Experimental: An ex-vivo porcine wound healing model was used as it has been described in patent publication DE 103 17 400 B4.
From the plicae of washed and sterilized pig ears sample punches 6 mm in diameter were taken. From the center of the punches the epidermis and the upper dermis were removed in an area of 3 mm. Immediately after the models had been generated 5 μl of the test substances were introduced into the wounds, while 5 μl of PBS were applied into the control models. After 48 h (t48 h) the models were flash-frozen and stored at −80° C.
14 test series each were carried out so that 8 to 11 evaluable models were available for each sample.
The models were completely embedded in tissue freezing medium (company of Leica, Nussloch), and 6 μm thin sections were prepared using a cryostat. Care had been taken that the focus was always in the center of the respective model.
The sections were placed on SuperFrost object slides, air dried, fixed for 10 min. in −20° C. cold acetone, and stored at −80° C.
All models were stained with hematoxylin/eosin (2 sections each). The sequence of the staining process was as follows:
The staining was evaluated by means of a Leica light microscope DM LS and an Olympus Camedia digital camera.
0: No wound healing progress 1: Small wound tongue 2: Large wound tongue 3: Closed sheet 4: Multi-layered closed sheet.
In the event that both wound margins could be assessed the average between the left and the right wound margin was determined. The statistical evaluations were made using Student's paired T-test.

[3] = tested on: HaCaT cells (human skin cells); experiment: Wound closure in vitro: circular injury in a HaCaT monolayer; format: cell-based; conditions: for Area of Injury (MW): 0.5% FCS, n=4
Experimental: Plating of HaCaT cells (human skin cells) took place on collagen-I coated 24-well plates. With a complete medium (10% FCS=fetal calf serum) the cells grew together as monolayer within a period of 24 h.
After this cell layer had closed a circular injury was applied in the center using a sterile tip of a defined diameter that averaged 0.68 mm (0.363 mm^2).
When the injury had been applied the complete medium was changed to a starvation medium containing only 0.5 w/w of FCS (fetal calf serum) instead of 10% w/w FCS. The following test solutions were then pipetted on the cells (per solution: n=4):
0.5% FCS+PBS (phosphate buffered saline), control solution 0.5 FCS+1 mM ectoine 0.5 FCS+10 mM ectoine 0.5% FCS+100 mM ectoine.
Over a time span of 48 h the cells were incubated with the test solutions during which wound closure was documented with the aid of a digital camera. In each case photos were taken at the beginning and then at 24-h intervals. The area still found to be free in each case was measured or calculated and expressed in mm^2. The results can be seen from the following tables (SD: Standard deviation, MW: Mean value): […]

In the case of `CC1=NC[C@H](O)[C@@H](C(=O)O)N1` [hydroxyectoine, (4S,5S)-5-hydroxy-2-methyl-1,4,5,6-tetrahydropyrimidine-4-carboxylic acid], the “Re-epithelialization, hydroxyectoine compared with ectoine” value [1] is reported as “slightly more effective with hydroxyectoine than with ectoine”, the “Gap width in treated cell cultures (re-epithelialization)” value [1] is reported as “diminished faster” and the Wound healing potential [2] is reported as “improved wound healing potential”.
`OCC(CO)O[C@H]1O[C@H](CO)[C@@H](O)[C@H](O)[C@H]1O` [GG hypertonic, Glucosylglycerol] was tested, and the “Wound healing progress based on the PBS control (MW)” value (“Wound healing progress based” for short) [2] was 1.17 and the “Absolute wound healing progress (wound healing score, MW)” value (“Absolute wound healing progress” below) [2] was 1.66.
`CC1=NC[C@H](O)[C@@H](C(=O)O)N1` [HE hypertonic, Hydroxyectoine] was tested, and the “Wound healing progress based” value [2] was 1.21 and the “Absolute wound healing progress” value [2] was 2.08.
In the case of `CC1=NCC[C@@H](C(=O)O)N1` [ectoine, (S)-2-methyl-1,4,5,6-tetrahydropyrimidine-4-carboxylic acid], the “Closure of the circular injury in comparison with the control solution” value (“Closure of the circular injury” below) ([3]; 1 mM ectoine) is reported as “marked tendency towards faster closure”, the “Area of Injury (MW)” value ([3]; 1 mM ectoine, after 0 hours) is reported as 0.354 mm^2 and the “Area of Injury (MW)” value ([3]; 1 mM ectoine, after 24 hours) is reported as 0.157 mm^2. The “Area of Injury (MW)” value ([3]; 1 mM ectoine, after 48 hours) was 0.042 mm^2, the “Closure of the circular injury” value ([3]; 10 mM ectoine) was “marked tendency towards faster closure” and the “Area of Injury (MW)” value ([3]; 10 mM ectoine, after 0 hours) was 0.351 mm^2. The “Area of Injury (MW)” value ([3]; 10 mM ectoine, after 24 hours) was 0.182 mm^2, the “Area of Injury (MW)” value ([3]; 10 mM ectoine, after 48 hours) was 0.023 mm^2 and the “Closure of the circular injury” value ([3]; 100 mM ectoine) was “delayed healing”. For the same compound, the “Area of Injury (MW)” value ([3]; 100 mM ectoine, after 0 hours) was 0.325 mm^2, the “Area of Injury (MW)” value ([3]; 100 mM ectoine, after 24 hours) was 0.244 mm^2 and the “Area of Injury (MW)” value ([3]; 100 mM ectoine, after 48 hours) was 0.171 mm^2. For the same compound, the “Gap width in %” value ([1]; 0.1 mM ectoine) was 100.687%, the “Gap width in %” value ([1]; 0.5 mM ectoine) was 96.434% and the “Gap width in %” value ([1]; 1 mM ectoine) was 91.632%. For the same compound, the “Gap width in %” value ([1]; 2.5 mM ectoine) was 93.012%, the “Gap width in %” value ([1]; 5 mM ectoine) was 88.418% and the “Gap width in treated cell cultures (re-epithelialization)” value [1] was “diminished faster”.
`OCC(CO)O[C@H]1O[C@H](CO)[C@@H](O)[C@H](O)[C@H]1O` [GG I, Glucosylglycerol] was tested, and the “Wound healing progress based” value [2] was 1.42 and the “Absolute wound healing progress” value [2] was 2.12.
For `OCC(CO)OC1OC(CO)[C@@H](O)C(O)C1O` (stereo in doubt) [glucosylglycerol, 2-O-α-D-glucosylglycerol], the Wound healing potential [2] was “improved wound healing potential”.
With `CC1=NC[C@H](O)[C@@H](C(=O)O)N1` [HE I, Hydroxyectoine] the “Wound healing progress based” value [2] was 1.05 and the “Absolute wound healing progress” value [2] was 1.92.
